{"source": "patent US11998591B2", "about": "“Method of treating diabetes type 2 by administering ultrarapid acting insulin” (MannKind Corporation, priority 2008, dated 2024)", "key": {"[1]": {"conditions": "cited from earlier work"}, "[2]": {"system": "subjects with type 1 diabetes", "experiment": "52-week clinical trial: basal insulin + prandial TI Inhalation Powder vs basal insulin + SC insulin aspart", "type": "in vivo, human", "source_text": "A Prospective, Multi-Center, Open-Label, Randomized, Controlled Clinical Trial Comparing the Efficacy and Safety in Subjects with Type 1 Diabetes Receiving SC Basal Insulin and Prandial Inhalation of Insulin-FDKP Versus SC Basal and Prandial Insulin Over a 52-Week Treatment Period and a 4-Week Follow-Up\nThis was a prospective, multi-country, multicenter, open label, randomized, controlled clinical trial comparing glycemic control in subjects with type 1 diabetes receiving basal insulin and prandial insulin-FDKP (TI) Inhalation Powder (TI Inhalation Powder group) with subjects receiving basal insulin and SC rapid-acting insulin aspart (comparator group). This study included a 52-week treatment phase and a 4-week follow-up phase. During the 4-week follow-up phase, pulmonary function and select clinical laboratory assessments were scheduled.\nThe study began with enrollment at Week −3. Subjects received a complete battery of safety and eligibility assessments, including HbA1c and fasting plasma glucose (FPG).\nAt Week −1, subjects were randomized to one of the following 2 treatments: • Basal insulin+prandial TI Inhalation Powder • Basal insulin+prandial SC rapid-acting insulin\nAt Week −1, subjects again completed the first three components of the Insulin Treatment Questionnaire (ITQ) for the purpose of assessing test-retest reliability only). After completing the questionnaire, subjects randomized to the TI Inhalation Powder group were trained on the MEDTONE® Inhaler using TECHNOSPHERE®/insulin (insulin-FDKP) inhalation powder; subjects in the comparator group were trained in the use of the NOVOLOG® pens; all subjects were trained in administration of LANTUS®. Additionally, all subjects were trained on a blood glucose monitoring (HBGM) meter provided at the beginning of the trial and diary and received diabetes education. Any training was repeated at Week 0, if needed.\nAt the beginning of the treatment phase, subjects had several titration/dose evaluation visits to adjust insulin therapy. Titration visits occurred once a week for the first 4 weeks. During Weeks 4 through 10, there were three telephone “visits” (at Week 6, Week 8, and Week 10) to titrate dose, if necessary. However, dose titration was allowed throughout the trial.\nAll subjects completed a 7-point blood glucose profile on any 3 days during the week immediately preceding each visit from Week 0 to Week 52. The 7 time points included samples from before breakfast and 2 hours after breakfast, before the mid-day meal and 2 hours after the mid-day meal, before the evening meal and 2 hours after the evening meal and at bedtime (7 time points a day, over 3 days). These blood glucose (BG) values were recorded in the HBGM diary that was collected at clinic visits. The diaries for Weeks 4 through 10 (during dose titration) which were discussed over the telephone were collected at the next office visits.\nA meal challenge test was performed at Week 4 (during dose titration), Week 26, and Week 52. Meal challenge venous blood sampling times were: −30, 0, 30, 60, 90, 105, 120, 180, 240, 300, and 360 minutes. Blood glucose (BG) was also measured using HBGM glucose meters to aid the Investigator in treatment decisions and values were obtained at −30, 0, 60, and 120 minutes during the meal challenge.\nTreatments for glycemic control used in the trial were the following: prandial insulin-FDKP (TI) inhalation powder, prandial insulin aspart, and basal insulin glargine. Subjects assigned to the TI Inhalation Powder group (TI Inhalation Powder in combination with basal insulin therapy) received sc basal insulin glargine (LANTUS®) once daily (at bedtime) and inhaled TI Inhalation Powder 3 to 4 times a day, immediately before main meals or a snack as based upon clinical need. Adjustment of the TI Inhalation Powder dose and frequency of use to greater than 3 times a day was at the discretion of the Investigator. […]"}, "[3]": {"system": "subjects with type 2 diabetes", "type": "in vivo, human", "protocol": "Following the completion of the meal challenge, the data was analyzed as per the statistical analysis plan. […] The study was amended (A1) and included 12 subjects (10 were reenrolled from the first meal challenge), and only two treatments, which were 10 U lispro and 60 and 90 U TI. The doses were selected based on the relative bioavailability observed following the first meal challenge (OP), where under an assumption of linear kinetics, 10 U lispro and 60 U TI would result in similar exposure. The 90 U dose group was included to assess the effect of the highest dose group of TI studied in Phase 3 trials. Six of the 12 subjects received 60 U TI and the other 6 subjects received 90 U TI. All 12 subjects received 10 U lispro in a crossover fashion. Methods and results below are described in terms of the Original Protocol (OP), which includes the meal challenge in 18 subjects with three treatments (EXUBERA®, lispro and TI) and Amendment 1 (A1), which includes 12 subjects treated with only TI and lispro. […] The subjects were screened and evaluated before, during and after the experiments and their data analyzed as described below. Subjects were selected based on several key inclusion criteria, including, male and female, having ≥18 and ≤70 years of age with clinical diagnosis of type 2 diabetes mellitus for ≥12 months. The subjects selected for the study also had stable anti-diabetic regimen with insulin for the previous 3 months; HbA1c ≤8.5%; Body Mass Index (BMI) between ≤34 kg/m^2 and ≥25 kg/m^2; urine cotinine ≤100 ng/mL; […] Criteria for exclusion from the study also included unstable diabetes control and/or evidence of serious complications of diabetes (e.g., autonomic neuropathy); serum creatinine >1.8 mg/dL in female subjects and >2.0 mg/dL in male subjects. Other clinically important pulmonary disease was confirmed by documented history or pulmonary function testing. Under A1, the study was planned to be a randomized, open label, 2-way cross-over study. […] Blood glucose concentrations were measured at regular intervals from arterialized venous blood samples. […]"}, "[4]": {"system": "subjects with type 2 diabetes", "type": "in vivo, human", "protocol": "The insulin-FDKP formulation is administered to the subjects by oral inhalation using a MEDTONE® dry powder inhaler (MannKind Corp.). Following the completion of the meal challenge, the data was analyzed as per the statistical analysis plan. […] The study was amended (A1) and included 12 subjects (10 were reenrolled from the first meal challenge), and only two treatments, which were 10 U lispro and 60 and 90 U TI. The doses were selected based on the relative bioavailability observed following the first meal challenge (OP), where under an assumption of linear kinetics, 10 U lispro and 60 U TI would result in similar exposure. The 90 U dose group was included to assess the effect of the highest dose group of TI studied in Phase 3 trials. Six of the 12 subjects received 60 U TI and the other 6 subjects received 90 U TI. All 12 subjects received 10 U lispro in a crossover fashion. Methods and results below are described in terms of the Original Protocol (OP), which includes the meal challenge in 18 subjects with three treatments (EXUBERA®, lispro and TI) and Amendment 1 (A1), which includes 12 subjects treated with only TI and lispro. […] The subjects were screened and evaluated before, during and after the experiments and their data analyzed as described below. Subjects were selected based on several key inclusion criteria, including, male and female, having ≥18 and ≤70 years of age with clinical diagnosis of type 2 diabetes mellitus for ≥12 months. The subjects selected for the study also had stable anti-diabetic regimen with insulin for the previous 3 months; HbA1c ≤8.5%; Body Mass Index (BMI) between ≤34 kg/m^2 and ≥25 kg/m^2; urine cotinine ≤100 ng/mL; […] Criteria for exclusion from the study also included unstable diabetes control and/or evidence of serious complications of diabetes (e.g., autonomic neuropathy); serum creatinine >1.8 mg/dL in female subjects and >2.0 mg/dL in male subjects. Other clinically important pulmonary disease was confirmed by documented history or pulmonary function testing. Under OP, the study was planned to be a randomized, open label, 3-way cross-over study. […] At this analysis all patients at least had completed the meal challenge visits and only those data have been used. The screening visit(s) (V1) occurred 1 to 21 days before the first treatment visit (V2) with 7 to 21 days elapsing between treatment-visits (V2, V3, and V4) for the meal challenge test. A minimum of 8 weeks elapsed between V4 and the next treatment visit, (V6). An additional safety visit (V5) was scheduled 1-3 days prior to the first of 3 glucose clamp procedures (V6). The glucose clamp procedure occurred at 3 visits, Visits V6, V7, and V8, with 7 to 21 days elapsing between the visits. […] Each treatment visit during the meal challenge had the subjects hospitalized in the clinical unit the night before initiation of treatment. […] Each subject followed the same randomization order for the glucose-clamp procedures as for the meal challenge tests. During the study, periodic blood draws for determination of pharmacokinetic and/or pharmacodynamic parameters, and safety were taken beginning at 12 hours prior to onset of the treatment regimens and meal challenge, and thereafter for a period of 8 hours. […] Meal Challenge Test: BOOST PLUS® (12 fl. oz.) consisting of 67.5 g carbohydrate, 21 g protein, 21 g fat, energy content 540 kcal was used for the meal challenge test. The BOOST PLUS® was enriched with U-^13C-glucose to determine the amount of absorbed glucose. Concurrent enriched continuous infusion of 6,6-^2H2 glucose was used to assess endogenous glucose production EGP. […] Under OP, the dose for insulin lispro was selected based on information obtained from the regulatory label. The dose selected for EXUBERA® was obtained by means of back calculation of the most commonly used dose information presented to the FDA Advisory Committee in the EXUBERA® Briefing Document. […]", "remark": "listed apart in the source"}, "[5]": {"system": "patients", "conditions": "gastrointestinal side-effects being a primary issue; cited from earlier work"}, "[6]": {"conditions": "subjects with type 1 diabetes, prescribing information"}, "[7]": {"conditions": "52 weeks, with basal insulin glargine"}, "[8]": {"conditions": "OP: 45 U insulin-FDKP, 12 U SC lispro, 4 mg EXUBERA, FIG. 6"}}, "note": "Where two headings read alike, the source gives them in different places.", "data": [{"compound": "insulin glulisine: rapid acting insulin analog (APIDRA®)", "values": [{"measurement": "Range of Tmax", "setting": "[1]; both type 1 and type 2 populations, prescribing information", "result": "0.667 to 2", "unit": "h"}, {"measurement": "Median Tmax", "setting": "[1]; [6]", "result": 1, "unit": "h"}, {"measurement": "Median Tmax", "setting": "[1]; subjects with type 2 diabetes, prescribing information", "result": 1.67, "unit": "h"}]}, {"compound": "insulin aspart: SC rapid-acting insulin analog (NOVOLOG®), comparator in Example 2", "values": [{"measurement": "Mean decrease in fasting plasma glucose (FPG) from baseline", "setting": "[2]; 52-week treatment period, with basal insulin glargine", "result": "23.4 (SD 103.1) mg/dL"}, {"measurement": "Mean fasting plasma glucose (FPG) at the end of the treatment period", "setting": "[2]; [7]", "result": "161.3 (SD 68.2) mg/dL"}, {"measurement": "Percentage of subjects whose HbA1c level decreased to ≤6.5%", "setting": "[2]; [7]", "result": 7.31, "unit": "%"}, {"measurement": "Percentage of subjects whose HbA1c level decreased to ≤7.0%", "setting": "[2]; [7]", "result": 15.98, "unit": "%"}, {"measurement": "Percentage of subjects whose HbA1c level decreased to ≤8.0%", "setting": "[2]; [7]", "result": 56.16, "unit": "%"}, {"measurement": "HbA1c", "setting": "[2]; Week 14, with basal insulin glargine", "result": "8.07 (SD 1.09) %"}, {"measurement": "Average body weight gain", "setting": "[2]; over the 52-week treatment period", "result": 1.4, "unit": "kg"}, {"measurement": "Median Tmax", "setting": "[1]; [6]", "result": "0.667 to 0.833", "unit": "h"}]}, {"compound": "insulin lispro: rapid acting insulin analog, subcutaneously administered (HUMALOG®, Eli Lilly & Co.)", "values": [{"measurement": "Time of peak inhibition of endogenous glucose production following dosing", "setting": "[3]; 10 U lispro SC, FIG. 10", "result": "about 100 minutes"}, {"measurement": "Time after dosing at which glucose disappearance rate peaked", "setting": "[3]; 10 U lispro SC, FIG. 11", "result": "about 100 minutes"}, {"measurement": "Median tmax of insulin concentration", "setting": "[3]; human, in vivo, sc", "result": 1, "unit": "h"}, {"measurement": "Time of peak inhibition of endogenous glucose production after treatment", "setting": "[4]; OP: 45 U insulin-FDKP, 12 U SC lispro, 4 mg EXUBERA, FIG. 5", "result": "about 80 minutes"}, {"measurement": "Time after dosing at which glucose disappearance rate peaked", "setting": "[4]; [8]", "result": "about 120 minutes"}, {"measurement": "Time post dosing at which glucose disappearance rate was substantial / departed from baseline", "setting": "[4]; [8]", "result": "about 30 minutes"}, {"measurement": "Time post-treatment at which (further) glucose infusion was needed to remain above 90 mg/dL", "setting": "[4]; OP: 45 U insulin-FDKP, 12 U SC lispro, 4 mg EXUBERA, after the initial phase", "result": "~3", "unit": "h"}, {"measurement": "Median tmax of insulin concentration", "setting": "[4]; human, in vivo, sc, 4 mg", "result": 1.25, "unit": "h"}, {"measurement": "Total insulin exposure, greater than following either 45 U insulin-FDKP (TI) or 4 mg EXUBERA", "setting": "[4]; in vivo", "result": "approximately 40%"}, {"measurement": "Tmax", "setting": "[1]; prescribing information", "result": "0.5 to 1.5", "unit": "h"}]}, {"compound": "Regular human insulin: regular human insulin preparations for subcutaneous injection, considered short acting", "values": [{"measurement": "Duration of significant elevation or activity (as long as)", "setting": "[1]; subcutaneous injection", "result": "10 to 12", "unit": "h"}, {"measurement": "Time to reach maximal activity", "setting": "[1]; subcutaneous injection", "result": "2 to 4", "unit": "h"}, {"measurement": "Time to reach maximal blood insulin concentration", "setting": "[1]; subcutaneous injection", "result": "1 to 2", "unit": "h"}]}, {"compound": "CN(C)C(=N)N=C(N)N", "note": "[metformin]", "values": [{"measurement": "Patients who cannot tolerate the drug, at least at dosages adequate for acceptable glycemic control", "setting": "[5]", "result": "Approximately 30%"}]}]}
